Test results: article PMC8558502 (The Biochemical journal, 2020)

Key:
[1] = system: Rhizopus delemar melanin production; details: cited from earlier work
[2] = system: R. delemar tyrosinase enzyme activity; assay type: cell-based, Rhizopus delemar; details: 10 μg/ml, 3 days, protein extract with 10 mM L-DOPA
[3] = system: Rhizopus delemar; assay: Growth; assay type: cell-based; details: kojic acid 50 μg/ml, 3 days

| Structure (SMILES) | Reduction of melanin production from R. delemar [1] | Inhibitory effect on melanin biosynthesis (tyrosinase activity) of R. delemar [2] | Effect on growth of fungal hyphae [3] |
| --- | --- | --- | --- |
| CC(C)c1ccc(C=O)cc1 [Cuminaldehyde, cuminaldehyde] | causes reduction of melanin production | highest |  |
| O=c1cc(CO)occ1O [Kojic acid] |  | highest | significant reduction in the growth of fungal hyphae |
